Tests used:
[1] = tested on: IMR-90 fibroblasts Rep-SCs; experiment: Cell viability assay (flow cytometry, PI); assay type: cell-based; settings: Homo sapiens, IMR-90, 72 h
Method: (§1) Human WI-38 fibroblasts (WI-38, Cat. No. CCL-75), human IMR-90 fibroblasts (IMR-90, Cat. No. CCL-186), human umbilical vein endothelial cells (HUVEC, Cat. No. CRL-1730), human renal epithelial cells (HREC, Cat. No. PCS-400-012) and human pre-adipocytes (Cat. No. PCS-210-010) were newly purchased from the American Type Culture Collection (ATCC, Manassas, VA, USA). WI-38 and IMR-90 cells were cultured in complete Dulbecco’s modified Eagle medium (DMEM, Cat. No. 12430054, Thermo Fisher Scientific, Waltham, MA, USA) supplemented with 10% heat-inactivated fetal bovine serum (FBS, Cat. No. S11150H, Atlanta Biologicals, Flowery Branch, GA, USA), 100 U/mL penicillin and 100 µg/mL streptomycin (Pen Strep, Cat. No. 15140122, Thermo Fisher Scientific, Waltham, MA, USA) in a humidified incubator at 37°C and 5% CO2. HUVEC were cultured in EGM-2 BulletKit (Cat. No. CC-3162, Lonza, Basel, Switzerland) containing basal medium supplemented with growth factors, cytokines and other supplements according to the manufacturer’s protocol. HREC were cultured in renal epithelial cell basal medium (Cat. No. PCS-400-030, ATCC, Manassas, VA, USA) supplemented with renal epithelial cell growth kit (Cat. No. PCS400040, ATCC, Manassas, VA, USA). Human pre-adipocytes were cultured in fibroblast basal medium (Cat. No. PCS-201-030, ATCC, Manassas, VA, USA) supplemented with fibroblast growth kit-low serum (Cat. No. PCS201041, ATCC, Manassas, VA, USA). EF24 (Cat. No. E8409) and HO-3867 (Cat. No. S7501) were purchased from Sigma-Aldrich (St. Louis, MO, USA) and Selleckchem (Houston, TX, USA), respectively. DIMC (Cat. No. 10009986) and 2-HBA (Cat. No. 11879) were both purchased from Cayman Chemical (Ann Arbor, MI, USA).
(§2) Three different methods were used for the induction of SCs, including replicative exhaustion, ionizing radiation and ectopic Ras expression as previously described. Briefly, low-passage WI-38 cells (< 25 passages), IMR-90 cells (< 25 passages), HUVEC (< 10 passages), HREC (< 10 passages) and pre-adipocytes (< 4 passages) were used as NCs or for the induction of senescence. To induce replicative senescence (Rep-SCs), WI-38 and IMR-90 fibroblasts, HUVEC, HREC and pre-adipocytes were subcultured until they stopped to divide and became permanently growth arrested senescence after 38 passages (WI-38), 38 passages (IMR-90), 22 passages (HUVEC), 30 passages (HREC) and 10 passages (pre-adipocytes), respectively. To induce SCs by ionizing radiation (IR-SCs) and ectopic expression of Ras (Ras-SCs), WI-38 NCs were treated as previously described.
(§3) Number of viable cells were quantified using flow cytometry as previously described with slight modifications. Specifically, NCs and SCs were incubated with vehicle (0.1% DMSO) or a test compound at indicated concentrations for 72 h. Following dissociation with 0.25% Trypsin-EDTA (Cat. No. 25200056, Thermo Fisher Scientific, Waltham, MA, USA) at 37°C for 5 min, the cells were harvested in 100 µl pre-cooled phosphate buffered saline (PBS, Cat. No. 20012027, Thermo Fisher Scientific, Waltham, MA, USA) containing 2% FBS and 100 ng/mL propidium iodide (PI, P4170, Sigma-Aldrich, St. Louis, MO, USA) and analyzed using flow cytometry (LSR II, BD Biosciences, San Jose, CA, USA). Percentage of viable cells were determined by counting the number of PI negative cells (viable cells) and then calculated as a ratio of control cells treated with vehicle. In addition, dose-response curves were generated for each compound, and the concentration for 50% of maximal effect (EC50 values) was calculated using GraphPad Prism 6.

pre-adipocytes Rep-SCs = experiment: Cell viability assay (flow cytometry, PI); assay type: cell-based; settings: Homo sapiens; Pre-adipocyte, 72 h
Method: as §1, §2, §3

pre-adipocytes NCs = experiment: Cell viability assay (flow cytometry, PI); assay type: cell-based; settings: Homo sapiens; Pre-adipocyte, 72 h
Method: as §1, §2, §3

HREC Rep-SCs = experiment: Cell viability assay (flow cytometry, PI); assay type: cell-based; settings: Homo sapiens, 72 h
Method: as §1, §2, §3

HUVEC Rep-SCs = experiment: Cell viability assay (flow cytometry, PI); assay type: cell-based; settings: Homo sapiens, 72 h
Method: as §1, §2, §3

HUVEC NCs = experiment: Cell viability assay (flow cytometry, PI); assay type: cell-based; settings: Homo sapiens, 72 h
Method: as §1, §2, §3

HUVEC IR-SCs = experiment: Cell viability assay (flow cytometry, PI); assay type: cell-based; settings: Homo sapiens, 72 h
WI-38 NCs = experiment: Apoptosis analysis (Annexin-V/PI flow cytometry); assay type: cell-based, human; settings: 2 µM, 72 h
Method: (§4) WI-38 NCs and SCs were treated with vehicle or 10 µM Q-VD-OPh (QVD, Cat. No. S7311, Selleckchem, Houston, TX, USA) for 4 h prior to the addition of vehicle or 2 µM EF24 for 72 h. The suspending cells were first harvested from the culture and then pooled with the adherent cells detached by 0.25% Trypsin-EDTA at 37°C for 5 min in 12 × 75 mm polystyrene round-bottom tubes (Cat. No. 352058, Falcon, Corning, NY, USA) containing complete DMEM medium. The cells were stained with Alexa Fluor 647-Annexin V (1: 50, Cat. No. 640912, BioLegend, San Diego, CA, USA) and PI (10 µg/mL, Cat. No. 421301, BioLegend, San Diego, CA, USA) at room temperature for 30 min. The stained cells were analyzed using a BD LSR II flow cytometer.

WI-38 IR-SCs = experiment: Apoptosis analysis (Annexin-V/PI flow cytometry); assay type: cell-based, human; settings: 2 µM, 72 h
Method: as §4

**Q.** `O=C1/C(=C/c2ccccc2F)CNC/C1=C\c1ccccc1F` [EF24] was tested. Which EC50 [1] did it give?
**A.** 330 nM

**Q.** What about the EC50 (pre-adipocytes Rep-SCs) of the same molecule?
**A.** 4600 nM

**Q.** And the EC50 (pre-adipocytes NCs)?
**A.** 8920 nM

**Q.** What about the EC50 (HREC Rep-SCs) of the same molecule?
**A.** 600 nM

**Q.** What about the EC50 (HUVEC Rep-SCs) of the same molecule?
**A.** 770 nM

**Q.** And the EC50 (HUVEC NCs)?
**A.** 1390 nM

**Q.** What about the EC50 (HUVEC IR-SCs) of the same molecule?
**A.** 2090 nM

**Q.** And the “induction of apoptosis in NCs” value (WI-38 NCs)?
**A.** did not induce apoptosis

**Q.** And the “number of PI positive cells representing necrotic cells in IR-SCs” value (WI-38 IR-SCs)?
**A.** not any significant changes

**Q.** And the “number and percentage of Annexin-V positive apoptotic cells in IR-SCs” value (WI-38 IR-SCs; compared to vehicle)?
**A.** significantly increased
